Data as given in PubChem BioAssay AID248 (DTP/NCI, 2004).
Values joined by “and” are separate entries in the source; they are usually repeats but may differ in a detail not shown here. Equal values may be shown once. Inconclusive results and toxic doses are left out. Cut-off read from the data, not from the text of the source: active = T/C of 150% or more; inactive = T/C below 125%.

Tested on: L1210 leukemia ip in BDF1 mice, survival T/C
Assay: NCI In Vivo Anticancer Drug Screen. Data for tumor model L1210 Leukemia (intraperitoneal) in B6D2F1 (BDF1) mice
Settings: endpoint: mean survival time, higher = longer survival
Summary of the method: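 Ratio derived from survival: compound-dosed mice over vehicle-dosed mice, all bearing a transplantable tumor.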

[1] = dose: 100.0 mg/kg/injection, schedule: Q01DX009 (ip), vehicle: Klucel (hydroxypropylcellulose) (HPC)
[2] = dose: 200.0 mg/kg/injection, schedule: Q01DX009 (ip), vehicle: Klucel (hydroxypropylcellulose) (HPC)
[3] = dose: 400.0 mg/kg/injection, schedule: Q01DX009 (ip), vehicle: Klucel (hydroxypropylcellulose) (HPC)
[4] = dose: 100.0 mg/kg/injection, schedule: Q01DX001 (ip), vehicle: saline with Tween-80
[5] = dose: 100.0 mg/kg/injection, schedule: Q01DX009 (ip), vehicle: saline with Tween-80
[6] = dose: 100.0 mg/kg/injection, schedule: Q04DX002 (ip), vehicle: saline with Tween-80
[7] = dose: 200.0 mg/kg/injection, schedule: Q01DX001 (ip), vehicle: saline with Tween-80
[8] = dose: 200.0 mg/kg/injection, schedule: Q04DX002 (ip), vehicle: saline with Tween-80
[9] = dose: 400.0 mg/kg/injection, schedule: Q01DX001 (ip), vehicle: saline with Tween-80
[10] = dose: 400.0 mg/kg/injection, schedule: Q04DX002 (ip), vehicle: saline with Tween-80
[11] = dose: 25.0 mg/kg/injection, schedule: Q01DX009 (ip), vehicle: Klucel (hydroxypropylcellulose) (HPC)
[12] = dose: 100.0 mg/kg/injection, schedule: Q01DX001 (ip), vehicle: saline
[13] = dose: 200.0 mg/kg/injection, schedule: Q01DX001 (ip), vehicle: saline
[14] = dose: 75.0 mg/kg/injection, schedule: Q01DX001 (ip), vehicle: saline
[15] = dose: 150.0 mg/kg/injection, schedule: Q01DX001 (ip), vehicle: saline

Measured: T/C

O=C(COc1ccc(Cl)cc1)Nc1ccccc1F
inactive: [1] 88 % of control | dose: 100.0 mg/kg/injection, schedule: Q04DX003 (ip), vehicle: Klucel (hydroxypropylcellulose) (HPC) 95 % of control | [2] 89 % of control | dose: 200.0 mg/kg/injection, schedule: Q04DX003 (ip), vehicle: Klucel (hydroxypropylcellulose) (HPC) 88 % of control | [3] 91 % of control | dose: 400.0 mg/kg/injection, schedule: Q04DX003 (ip), vehicle: Klucel (hydroxypropylcellulose) (HPC) 90 % of control

CC(=O)OCC(OS(=O)(=O)c1ccc(C)cc1)C(OC(C)=O)C(OC(C)=O)C(COC(C)=O)OS(=O)(=O)c1ccc(C)cc1 (centres undefined)
inactive: dose: 50.0 mg/kg/injection, schedule: Q04DX002 (ip), vehicle: Klucel (hydroxypropylcellulose) (HPC) 90 % of control | dose: 100.0 mg/kg/injection, schedule: Q04DX002 (ip), vehicle: Klucel (hydroxypropylcellulose) (HPC) 101 % of control | dose: 200.0 mg/kg/injection, schedule: Q04DX002 (ip), vehicle: Klucel (hydroxypropylcellulose) (HPC) 101 % of control

COc1cc([N+](=O)[O-])ccc1NC(=S)NC(=O)c1ccc(Cl)cc1Cl
inactive: [4] 92 % of control | [5] 91 % of control and 92 % of control | [6] 104 % of control and 87 % of control | dose: 100.0 mg/kg/injection, schedule: Q04DX003 (ip), vehicle: saline with Tween-80 98 % of control | [7] 92 % of control | dose: 200.0 mg/kg/injection, schedule: Q01DX009 (ip), vehicle: saline with Tween-80 95 % of control and 97 % of control | [8] 93 % of control and 97 % of control | dose: 200.0 mg/kg/injection, schedule: Q04DX003 (ip), vehicle: saline with Tween-80 92 % of control | [9] 90 % of control | dose: 400.0 mg/kg/injection, schedule: Q01DX009 (ip), vehicle: saline with Tween-80 93 % of control and 94 % of control | [10] 95 % of control and 87 % of control | dose: 400.0 mg/kg/injection, schedule: Q04DX003 (ip), vehicle: saline with Tween-80 88 % of control

CCCCCCC(CCC1CCCCC1)C(=O)O (centres undefined)
inactive: [4] 88 % of control | [7] 96 % of control | [9] 92 % of control

CC/C(C)=C\CC/C(C)=C\COc1ccccc1[N+](=O)[O-]
inactive: dose: 100.0 mg/kg/injection, schedule: Q01DX009 (ip), vehicle: carboxymethylcellulose (CMC) 100 % of control | dose: 200.0 mg/kg/injection, schedule: Q01DX009 (ip), vehicle: carboxymethylcellulose (CMC) 100 % of control | dose: 400.0 mg/kg/injection, schedule: Q01DX009 (ip), vehicle: carboxymethylcellulose (CMC) 98 % of control

Cc1ccc(S(=O)(=O)NC(=O)N(Cc2ccccc2)C(C)(C)C)cc1
inactive: [11] 107 % of control | dose: 50.0 mg/kg/injection, schedule: Q01DX009 (ip), vehicle: Klucel (hydroxypropylcellulose) (HPC) 100 % of control

C1CCC2C(C1)NC1CCCCC12 (centres undefined)
inactive: dose: 100.0 mg/kg/injection, schedule: Q04DX003 (ip), vehicle: saline 97 % of control

CC1C(OC(=O)CCc2ccccc2)=CCC2C1(C)CCC1C2(C)CCC2(C)C3CC(C)(C)CCC3(C)CCC12C (centres undefined)
inactive: dose: 50.0 mg/kg/injection, schedule: Q01DX001 (ip), vehicle: saline 98 % of control | [12] 102 % of control | [13] 95 % of control

CC(C)(C)c1cccc(Cl)c1O
inactive: dose: 25.0 mg/kg/injection, schedule: Q01DX009 (ip), vehicle: saline with Tween-80 102 % of control | dose: 50.0 mg/kg/injection, schedule: Q01DX009 (ip), vehicle: saline with Tween-80 93 % of control | [5] 96 % of control and 98 % of control

Cc1nc(-c2ccc(N=Cc3ccc(N(CCOS(C)(=O)=O)CCOS(C)(=O)=O)cc3Cl)cc2)c(C)s1
inactive: dose: 12.5 mg/kg/injection, schedule: Q01DX009 (ip), vehicle: Klucel (hydroxypropylcellulose) (HPC) 114 % of control | [11] 111 % of control

CCOC(=O)c1cc2c([nH]1)CCCC2
inactive: [6] 100 % of control | [8] 94 % of control | [10] 97 % of control

CCN(CC)CCOc1ccc(N=N/C(C(C)=O)=C(\C)O)cc1
inactive: dose: 25.0 mg/kg/injection, schedule: Q04DX002 (ip), vehicle: saline 93 % of control and 96 % of control | dose: 50.0 mg/kg/injection, schedule: Q04DX002 (ip), vehicle: saline 101 % of control and 104 % of control

CCCCCCCCCCCCCCCCCC(=O)N/N=C/c1ccc(N(C)C)cc1
inactive: [1] 93 % of control | [2] 94 % of control | [3] 98 % of control

O=C(CCl)c1ccc2c(c1)Nc1ccccc1S2
inactive: dose: 50.0 mg/kg/injection, schedule: Q01DX001 (ip), vehicle: carboxymethylcellulose (CMC) 93 % of control | dose: 200.0 mg/kg/injection, schedule: Q01DX001 (ip), vehicle: carboxymethylcellulose (CMC) 93 % of control | dose: 400.0 mg/kg/injection, schedule: Q01DX001 (ip), vehicle: carboxymethylcellulose (CMC) 96 % of control

NC(N)=N/N=C/CN1C(=O)c2ccccc2C1=O
inactive: dose: 60.0 mg/kg/injection, schedule: Q01DX Z (oral), vehicle: methylcellulose (MC) 104 % of control | dose: 120.0 mg/kg/injection, schedule: Q01DX Z (oral), vehicle: methylcellulose (MC) 94 % of control | dose: 240.0 mg/kg/injection, schedule: Q01DX Z (oral), vehicle: methylcellulose (MC) 109 % of control | dose: 480.0 mg/kg/injection, schedule: Q01DX Z (oral), vehicle: methylcellulose (MC) 98 % of control

CC(C)(C)CC(C)(C)NCC(O)COc1ccc(C(C)(C)c2ccc(OCC(O)CNC(C)(C)CC(C)(C)C)cc2)cc1 (centres undefined)
inactive: dose: 3.13 mg/kg/injection, schedule: Q04DX003 (ip), vehicle: other 93 % of control | dose: 6.25 mg/kg/injection, schedule: Q01DX001 (ip), vehicle: saline sonified 97 % of control | dose: 6.25 mg/kg/injection, schedule: Q04DX003 (ip), vehicle: other 97 % of control | dose: 12.5 mg/kg/injection, schedule: Q01DX001 (ip), vehicle: saline sonified 96 % of control | dose: 12.5 mg/kg/injection, schedule: Q04DX003 (ip), vehicle: other 98 % of control | dose: 25.0 mg/kg/injection, schedule: Q04DX003 (ip), vehicle: other 93 % of control

COC(OC)C(Br)(Br)Br
inactive: [12] 96 % of control | [13] 106 % of control | dose: 400.0 mg/kg/injection, schedule: Q01DX001 (ip), vehicle: saline 100 % of control

NCCCS
inactive: [14] 96 % of control | [15] 96 % of control

O=S(=O)(Cc1ccccc1)SSS(=O)(=O)Cc1ccccc1
inactive: [14] 98 % of control | [15] 106 % of control | dose: 300.0 mg/kg/injection, schedule: Q01DX001 (ip), vehicle: saline 95 % of control

NC(N)=NCCCNCCCN=C(N)N
inactive: dose: 17.5 mg/kg/injection, schedule: Q01DX Z (oral), vehicle: saline 100 % of control | dose: 35.0 mg/kg/injection, schedule: Q01DX Z (oral), vehicle: saline 101 % of control | dose: 70.0 mg/kg/injection, schedule: Q01DX Z (oral), vehicle: saline 114 % of control | dose: 140.0 mg/kg/injection, schedule: Q01DX Z (oral), vehicle: saline 117 % of control

Nc1csc2ncccc12
inactive: dose: 100.0 mg/kg/injection, schedule: Q01DX001 (ip), vehicle: Klucel (hydroxypropylcellulose) (HPC) 112 % of control | dose: 200.0 mg/kg/injection, schedule: Q01DX001 (ip), vehicle: Klucel (hydroxypropylcellulose) (HPC) 105 % of control | dose: 400.0 mg/kg/injection, schedule: Q01DX001 (ip), vehicle: Klucel (hydroxypropylcellulose) (HPC) 114 % of control
